Results as given in PubChem BioAssay (NCI).
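Where inhibition never reached the appropriate level, the endpoint shown equals the highest concentration tested. Otherwise, values were interpolated linearly from a five-concentration, 48-hour dose response in 96-well plates. TGI: concentration producing complete growth inhibition.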

How the values were obtained:
Assay in all cases: NCI-60 cell line screen, 48 h
RXF-631 renal = test system: RXF-631 renal
786-0 renal = test system: 786-0 renal
MOLT-4 leukemia = test system: MOLT-4 leukemia
KM20L2 colon = test system: KM20L2 colon
HCT-15 colon = test system: HCT-15 colon
HT29 colon = test system: HT29 colon
PC-3 prostate = test system: PC-3 prostate
ACHN renal = test system: ACHN renal
NCI/ADR-RES ovarian = test system: NCI/ADR-RES ovarian
XF 498 CNS = test system: XF 498 CNS
NCI-H460 lung = test system: NCI-H460 lung
SNB-19 CNS = test system: SNB-19 CNS
UACC-62 melanoma = test system: UACC-62 melanoma
DU-145 prostate = test system: DU-145 prostate
K-562 leukemia = test system: K-562 leukemia
SW-620 colon = test system: SW-620 colon
SN12C renal = test system: SN12C renal
SF-295 CNS = test system: SF-295 CNS
HCC-2998 colon = test system: HCC-2998 colon
M14 melanoma = test system: M14 melanoma
SK-MEL-5 melanoma = test system: SK-MEL-5 melanoma
SF-539 CNS = test system: SF-539 CNS
SNB-75 CNS = test system: SNB-75 CNS
NCI-H23 lung = test system: NCI-H23 lung
LXFL 529 NSCLC = test system: LXFL 529 NSCLC
SNB-78 CNS = test system: SNB-78 CNS
T-47D breast = test system: T-47D breast
SK-OV-3 ovarian = test system: SK-OV-3 ovarian
CAKI-1 renal = test system: CAKI-1 renal
MDA-MB-231 breast = test system: MDA-MB-231 breast
HOP-18 NSCLC = test system: HOP-18 NSCLC
NCI-H226 lung = test system: NCI-H226 lung
COLO 205 colon = test system: COLO 205 colon
SK-MEL-28 melanoma = test system: SK-MEL-28 melanoma
HOP-92 NSCLC = test system: HOP-92 NSCLC
RPMI-8226 leukemia = test system: RPMI-8226 leukemia
SK-MEL-2 melanoma = test system: SK-MEL-2 melanoma
HS 578T breast = test system: HS 578T breast
SF-268 CNS = test system: SF-268 CNS
CCRF-CEM leukemia = test system: CCRF-CEM leukemia
IGROV1 ovarian = test system: IGROV1 ovarian
MDA-N = test system: MDA-N
TK-10 renal = test system: TK-10 renal
OVCAR-3 ovarian = test system: OVCAR-3 ovarian
MALME-3M melanoma = test system: MALME-3M melanoma
KM12 colon = test system: KM12 colon
EKVX NSCLC = test system: EKVX NSCLC
NCI-H522 lung = test system: NCI-H522 lung
MDA-MB-435 = test system: MDA-MB-435
A549 NSCLC = test system: A549 NSCLC
HCT-116 colon = test system: HCT-116 colon
LOX IMVI melanoma = test system: LOX IMVI melanoma
A498 renal = test system: A498 renal
UO-31 renal = test system: UO-31 renal
RXF 393 renal = test system: RXF 393 renal
HOP-62 NSCLC = test system: HOP-62 NSCLC
HL-60(TB) leukemia = test system: HL-60(TB) leukemia
SR leukemia = test system: SR leukemia
OVCAR-8 ovarian = test system: OVCAR-8 ovarian
UACC-257 melanoma = test system: UACC-257 melanoma
U251 CNS = test system: U251 CNS
OVCAR-5 ovarian = test system: OVCAR-5 ovarian
MCF7 breast = test system: MCF7 breast

SMILES: O=C(Nc1nc2ncn(CCOC(=O)c3ccccc3)c2c(=O)[nH]1)c1ccccc1
- TGI (RXF-631 renal): > 100 µM
- TGI (786-0 renal): > 100 µM
- TGI (MOLT-4 leukemia): > 100 µM
- TGI (KM20L2 colon): 83.3 µM
- TGI (HCT-15 colon): > 100 µM
- TGI (HT29 colon): > 37.9 µM
- TGI (PC-3 prostate): > 100 µM
- TGI (ACHN renal): > 100 µM
- TGI (NCI/ADR-RES ovarian): > 100 µM
- TGI (XF 498 CNS): 55.7 µM
- TGI (NCI-H460 lung): > 100 µM
- TGI (SNB-19 CNS): > 100 µM
- TGI (UACC-62 melanoma): > 100 µM
- TGI (DU-145 prostate): > 100 µM
- TGI (K-562 leukemia): > 100 µM
- TGI (SW-620 colon): > 100 µM
- TGI (SN12C renal): > 100 µM
- TGI (SF-295 CNS): 54.2 µM
- TGI (HCC-2998 colon): > 100 µM
- TGI (M14 melanoma): > 100 µM
- TGI (SK-MEL-5 melanoma): > 100 µM
- TGI (SF-539 CNS): 65.2 µM
- TGI (SNB-75 CNS): > 71.7 µM
- TGI (NCI-H23 lung): > 100 µM
- TGI (LXFL 529 NSCLC): > 100 µM
- TGI (SNB-78 CNS): > 100 µM
- TGI (T-47D breast): > 100 µM
- TGI (SK-OV-3 ovarian): > 79.9 µM
- TGI (CAKI-1 renal): > 100 µM
- TGI (MDA-MB-231 breast): > 100 µM
- TGI (HOP-18 NSCLC): > 100 µM
- TGI (NCI-H226 lung): > 100 µM
- TGI (COLO 205 colon): 23.6 µM
- TGI (SK-MEL-28 melanoma): > 100 µM
- TGI (HOP-92 NSCLC): > 75.6 µM
- TGI (RPMI-8226 leukemia): > 100 µM
- TGI (SK-MEL-2 melanoma): > 100 µM
- TGI (HS 578T breast): 51.7 µM
- TGI (SF-268 CNS): > 100 µM
- TGI (CCRF-CEM leukemia): > 100 µM
- TGI (IGROV1 ovarian): > 100 µM
- TGI (MDA-N): 7.89 µM
- TGI (TK-10 renal): > 100 µM
- TGI (OVCAR-3 ovarian): > 100 µM
- TGI (MALME-3M melanoma): > 100 µM
- TGI (KM12 colon): > 100 µM
- TGI (EKVX NSCLC): > 100 µM
- TGI (NCI-H522 lung): 8.32 µM
- TGI (MDA-MB-435): 8.32 µM
- TGI (A549 NSCLC): > 100 µM
- TGI (HCT-116 colon): > 100 µM
- TGI (LOX IMVI melanoma): > 100 µM
- TGI (A498 renal): > 100 µM
- TGI (UO-31 renal): > 100 µM
- TGI (RXF 393 renal): > 93.2 µM
- TGI (HOP-62 NSCLC): > 100 µM
- TGI (HL-60(TB) leukemia): > 24.6 µM
- TGI (SR leukemia): > 100 µM
- TGI (OVCAR-8 ovarian): > 100 µM
- TGI (UACC-257 melanoma): > 100 µM
- TGI (U251 CNS): > 64.8 µM
- TGI (OVCAR-5 ovarian): > 100 µM
- TGI (MCF7 breast): > 100 µM
